{"source": "patent US20130251678A1", "about": "“BID DOSAGE REGIMEN FOR DEB025” (NOVARTIS AG, priority 2010, published 2013)", "format_in_all_cases": "in vivo, human", "key": {"HCV Genotype 1 [1]": {"test_system": "HCV Genotype 1", "experiment": "Phase 2 study of genotype 1 treatment-naive patients: sustained virologic response (SVR)", "settings": "600 mg BID for one week followed by 600 mg QD, 48 week treatment duration, combined with peg-IFNα2a", "excerpt": "The virological response parameters are: rapid virologic response at treatment week 4 (RVR 4) defined by undetectable serum HCV-RNA at treatment week 4; early virological response (EVR), defined by at least 2 log10 IU/mL reduction in HCV-RNA compared to baseline (partial EVR) or undetectable serum HCV-RNA (complete EVR) at treatment week 12; sustained virological response (SVR24), defined as absence of HCV-RNA from serum by a sensitive Polymerase Chain Reaction (PCR) assay 24 weeks following end of therapy or the HCV RNA is undetectable (by LOD) 24 weeks after end of treatment; End of Treatment Response (ETR): HCV RNA undetectable (by LOD) at treatment end (completed or prematurely discontinued)."}, "HCV Genotype 1 [2]": {"test_system": "HCV Genotype 1", "experiment": "Clinical study in HCV Genotype 1 non responder patients: decline in HCV RNA from baseline", "settings": "with peg-IFNα2a plus RBV", "excerpt": "HCV RNA levels can be measured using commercially available methods. As used herein, LOD means limit of detection and LOQ means limit of quantification of HCV RNA levels. For example, when using the COBAS® TaqMan® HCV Test, v2.0 (Roche Diagnostics) for assessment of HCV RNA levels, LOQ of 25 IU/ml (1.398 log10) and LOD of 10 IU/ml (1 log10) have been reported.\nThe efficacy of the therapy regimen may be monitored using standard protocols. Treatment may be followed by determinations of HCV in serum and measurement of serum ALT (alanine-aminotransferase) levels. For example, the patients may be assessed for the presence of HCV RNA in their plasma. HCV RNA (IU/mL) can be measured at regular intervals during the treatment, e.g., at Day 1 (pre-dose and 4, 8, and 12 hours post-dose) and pre-dose at Day 2, Day 3, Day 8, Day 15, Day 29, and at Week 12, Week 24, Week 36, Week 48, Week 72 (when applicable), and at follow up. In addition, the HCV strains in the patient can be sequenced and assessed for identification of mutations selecting for resistance.\nIn this hard to treat patient population, the 400 mg BID dose provided greater decline in HCV RNA from baseline (−1.41 log10 IU/ml) than the 800 mg QD dose (−0.70 log10 IU/ml). […]"}, "[3]": {"experiment": "Observed alisporivir Cmin in the HCV Genotype 1 non responder patient study", "settings": "first week of treatment", "excerpt": "As used herein, AUC refers to Area Under the Curve in [hr ng/mL] or area under the concentration vs time curve indicating the integrated quantity of analyte or drug (the serum concentration curve) after dosing; Cmax refers to the maximum concentration of the analyte or drug in [ng/mL] achieved after dosing; Cmin refers to the minimum concentration of the analyte or drug in [ng/mL] achieved after dosing"}}}
{"smiles": "C/C=C/C[C@@H](C)[C@@H](O)[C@H]1C(=O)N[C@@H](CC)C(=O)N(C)[C@H](C)C(=O)N(CC)[C@@H](C(C)C)C(=O)N[C@@H](C(C)C)C(=O)N(C)[C@@H](CC(C)C)C(=O)N[C@@H](C)C(=O)N[C@H](C)C(=O)N(C)[C@@H](CC(C)C)C(=O)N(C)[C@@H](CC(C)C)C(=O)N(C)[C@@H](C(C)C)C(=O)N1C", "note": "[alisporivir, Alisporivir]", "values": [{"measurement": "rates of achievement of sustained virologic response (SVR) versus peg-IFNα2a", "setting": "HCV Genotype 1 [1]", "result": "superior"}, {"measurement": "decline in HCV RNA from baseline", "setting": "HCV Genotype 1 [2]; 400 mg BID during first week of treatment", "result": "−1.41", "unit": "log10 IU/ml"}, {"measurement": "decline in HCV RNA from baseline", "setting": "HCV Genotype 1 [2]; 800 mg QD during first week of treatment", "result": "−0.70", "unit": "log10 IU/ml"}, {"measurement": "median observed Cmin", "setting": "[3]; 400 mg BID", "result": 175, "unit": "ng/mL"}, {"measurement": "median observed Cmin", "setting": "[3]; 800 mg QD", "result": 148, "unit": "ng/mL"}]}
